# According to patent publication US20210261621A1, “Preparation of Dilipid Polymixins and Use Thereof as Antimicrobial Adjuvants” (priority 2018, published 2021):
# Read-outs that look alike come from different tables or passages of the source. Positions of bridges follow the written chain, without caps; N, C: chain ends. Non-standard residues stand in square brackets, D forms with d. Residues, ends and D or L forms follow the SMILES beside them. *: point of attachment. Benzoyl(4-Ph) = O=C(c1ccc(-c2ccccc2)cc1)*; Dab = NCC[C@H](N)C(=O)O
# Tests used:
# [1] = tested on: P. aeruginosa PAO1; parameters: MICDrug / MICDrug in combo / MIC of adjuvant in combo: unit not given beside the values
# [2] = tested on: pig erythrocytes; assay: Hemolytic assay; conditions: for % Hemolysis at 512 μg/mL of polymyxin / MHC5, minimum concentration that resulted in 5% red blood cell hemolysis: pig erythrocytes, 1 h at 37° C.
# Procedure: The ability of the compounds to lyse eukaryotic red blood cells was measured by the amount of hemoglobin released upon incubation with pig erythrocytes, following a published protocol [30]. Briefly, fresh pig blood (generously provided by Dr. Richard Hodges, Director of Animal Care and Veterinary Services of the University of Manitoba) drawn from a pig's antecubital vein was centrifuged at 1000 g for 5 min at 4° C., washed with phosphate-buffered saline (PBS) three times, and re-suspended in the same buffer, consecutively. Compounds at study were 2-fold serially diluted in PBS on a 96-well plate and mixed with equal volumes of erythrocyte solution. Post 1 h incubation at 37° C., the intact cells were pelleted by centrifugation at 1000 g for 5 min at 4° C. Resulting supernatant was then transferred to a new 96-well plate. The hemoglobin released was then measured via an EMax Plus microplate reader (Molecular Devices, USA) at 570 nm wavelength. Erythrocytes in PBS with or without 0.1% Triton X-100 were used as positive or negative control, respectively.
# [3] = combination with Chloramphenicol
compound,measurement,setting,value
"CC(C)C[C@@H]1NC(=O)[C@@H](Cc2ccccc2)NC(=O)[C@H](CCN)NC(=O)[C@@H](NC(=O)[C@H](CCN)NC(=O)[C@@H](NC(=O)[C@H](CCNC(=O)c2ccc(-c3ccccc3)cc2)NC(=O)c2ccc(-c3ccccc3)cc2)[C@@H](C)O)CCNC(=O)[C@H]([C@@H](C)O)NC(=O)[C@H](CCN)NC(=O)[C@H](CCN)NC1=O [Compound 5, Dibiphenyl-4-Carboxylic Acid (Di-Biphenyl) Polymyxin] ({Benzoyl(4-Ph)}-[Dab](Benzoyl(4-Ph))T[Dab][Dab][Dab][dF]L[Dab][Dab]T; lactam 4-C)","MIC of adjuvant alone (MIC1, MIC2, MIC3, MIC4, MIC5, MICPMBN)","[1]; adjuvant alone, one value per checkerboard, in µg/mL",16
same,FIC index,[1]; combination with Aztreonam,0.62
same,Interpretation,[1]; combination with Aztreonam,"Additive (An FIC index of ≤0.5, 0.5<x≤4, or >4 denotes for synergistic, additive or antagonistic interaction, respectively)"
same,FIC index,[1]; combination with Ceftazidime,0.62
same,Interpretation,[1]; combination with Ceftazidime,"Additive (An FIC index of ≤0.5, 0.5<x≤4, or >4 denotes for synergistic, additive or antagonistic interaction, respectively)"
same,FIC index,[1]; [3],0.50
same,Interpretation,[1]; [3],"Synergy (An FIC index of ≤0.5, 0.5<x≤4, or >4 denotes for synergistic, additive or antagonistic interaction, respectively)"
same,FIC index,[1]; combination with Ciprofloxacin,1.00
same,Interpretation,[1]; combination with Ciprofloxacin,"Additive (An FIC index of ≤0.5, 0.5<x≤4, or >4 denotes for synergistic, additive or antagonistic interaction, respectively)"
same,FIC index,[1]; combination with Clindamycin,0.53
same,Interpretation,[1]; combination with Clindamycin,"Additive (An FIC index of ≤0.5, 0.5<x≤4, or >4 denotes for synergistic, additive or antagonistic interaction, respectively)"
same,FIC index,[1]; combination with Doripenem,1.00
same,Interpretation,[1]; combination with Doripenem,"Additive (An FIC index of ≤0.5, 0.5<x≤4, or >4 denotes for synergistic, additive or antagonistic interaction, respectively)"
same,FIC index,[1]; combination with Doxycycline,0.53
same,Interpretation,[1]; combination with Doxycycline,"Additive (An FIC index of ≤0.5, 0.5<x≤4, or >4 denotes for synergistic, additive or antagonistic interaction, respectively)"
same,FIC index,[1]; combination with Fosfomycin,0.56
same,Interpretation,[1]; combination with Fosfomycin,"Additive (An FIC index of ≤0.5, 0.5<x≤4, or >4 denotes for synergistic, additive or antagonistic interaction, respectively)"
same,FIC index,[1]; combination with Gentamicin,2.01
same,Interpretation,[1]; combination with Gentamicin,"Additive (An FIC index of ≤0.5, 0.5<x≤4, or >4 denotes for synergistic, additive or antagonistic interaction, respectively)"
same,FIC index,[1]; combination with Linezolid,0.53
same,Interpretation,[1]; combination with Linezolid,"Additive (An FIC index of ≤0.5, 0.5<x≤4, or >4 denotes for synergistic, additive or antagonistic interaction, respectively)"
same,FIC index,[1]; combination with Meropenem,1.00
same,Interpretation,[1]; combination with Meropenem,"Additive (An FIC index of ≤0.5, 0.5<x≤4, or >4 denotes for synergistic, additive or antagonistic interaction, respectively)"
same,FIC index,[1]; combination with Minocycline,0.62
same,Interpretation,[1]; combination with Minocycline,"Additive (An FIC index of ≤0.5, 0.5<x≤4, or >4 denotes for synergistic, additive or antagonistic interaction, respectively)"
same,FIC index,[1]; combination with Moxifloxacin,0.75
same,Interpretation,[1]; combination with Moxifloxacin,"Additive (An FIC index of ≤0.5, 0.5<x≤4, or >4 denotes for synergistic, additive or antagonistic interaction, respectively)"
same,FIC index,[1]; combination with Novobiocin,0.50
same,Interpretation,[1]; combination with Novobiocin,"Synergy (An FIC index of ≤0.5, 0.5<x≤4, or >4 denotes for synergistic, additive or antagonistic interaction, respectively)"
same,FIC index,[1]; combination with Piperacillin,1.00
same,Interpretation,[1]; combination with Piperacillin,"Additive (An FIC index of ≤0.5, 0.5<x≤4, or >4 denotes for synergistic, additive or antagonistic interaction, respectively)"
same,Interpretation,[1]; combination with Pleuromutilin,"Additive (An FIC index of ≤0.5, 0.5<x≤4, or >4 denotes for synergistic, additive or antagonistic interaction, respectively)"
same,FIC index,[1]; combination with Rifampicin,0.31
same,Interpretation,[1]; combination with Rifampicin,"Synergy (An FIC index of ≤0.5, 0.5<x≤4, or >4 denotes for synergistic, additive or antagonistic interaction, respectively)"
same,FIC index,[1]; combination with Streptomycin,1.00
same,Interpretation,[1]; combination with Streptomycin,"Additive (An FIC index of ≤0.5, 0.5<x≤4, or >4 denotes for synergistic, additive or antagonistic interaction, respectively)"
same,FIC index,[1]; combination with Tobramycin,1.01
same,Interpretation,[1]; combination with Tobramycin,"Additive (An FIC index of ≤0.5, 0.5<x≤4, or >4 denotes for synergistic, additive or antagonistic interaction, respectively)"
same,FIC index,[1]; combination with Trimethoprim,0.62
same,Interpretation,[1]; combination with Trimethoprim,"Additive (An FIC index of ≤0.5, 0.5<x≤4, or >4 denotes for synergistic, additive or antagonistic interaction, respectively)"
same,FIC index,[1]; combination with Vancomycin,0.51
same,Interpretation,[1]; combination with Vancomycin,"Additive (An FIC index of ≤0.5, 0.5<x≤4, or >4 denotes for synergistic, additive or antagonistic interaction, respectively)"
same,MIC of adjuvant in combo,[1]; in combination with Aztreonam,(8)
same,MIC of adjuvant in combo,[1]; in combination with Ceftazidime,(8)
same,MIC of adjuvant in combo,[1]; in combination with Chloramphenicol,(4)
same,MIC of adjuvant in combo,[1]; in combination with Ciprofloxacin,(8)
same,MIC of adjuvant in combo,[1]; in combination with Clindamycin,(8)
same,MIC of adjuvant in combo,[1]; in combination with Doripenem,(8)
same,MIC of adjuvant in combo,[1]; in combination with Doxycycline,(8)
same,MIC of adjuvant in combo,[1]; in combination with Fosfomycin,(8)
same,MIC of adjuvant in combo,[1]; in combination with Gentamicin,(0.25)
same,MIC of adjuvant in combo,[1]; in combination with Linezolid,(8)
same,MIC of adjuvant in combo,[1]; in combination with Meropenem,(8)
same,MIC of adjuvant in combo,[1]; in combination with Minocycline,(8)
same,MIC of adjuvant in combo,[1]; in combination with Moxifloxacin,(8)
same,MIC of adjuvant in combo,[1]; in combination with Novobiocin,(4)
same,MIC of adjuvant in combo,[1]; in combination with Piperacillin,(8)
same,MIC of adjuvant in combo,[1]; in combination with Pleuromutilin,(8)
same,MIC of adjuvant in combo,[1]; in combination with Rifampicin,(4)
same,MIC of adjuvant in combo,[1]; in combination with Streptomycin,(8)
same,MIC of adjuvant in combo,[1]; in combination with Tobramycin,(0.25)
same,MIC of adjuvant in combo,[1]; in combination with Trimethoprim,(8)
same,MIC of adjuvant in combo,[1]; in combination with Vancomycin,(8)
same,% Hemolysis at 512 μg/mL of polymyxin,[2],13.1 ± 1.4%
same,"MHC5, minimum concentration that resulted in 5% red blood cell hemolysis",[2],128 µg/mL
colistin [reference compound],% Hemolysis at 512 μg/mL of polymyxin,[2],1.6 ± 0.5%
same,"MHC5, minimum concentration that resulted in 5% red blood cell hemolysis",[2],>512 µg/mL
same,hemolytic activity,[2]; up to the highest concentration tested of 512 μg/mL,no hemolytic activity
